In BindingDB's records for patent US20230348467 (Zhejiang Hisun Pharmaceutical, 2023):

Molecular target: T1, Tyrosine-protein phosphatase non-receptor type 11 (Homo sapiens, UniProt Q06124)
T1 sequence (Q06124 whole entry): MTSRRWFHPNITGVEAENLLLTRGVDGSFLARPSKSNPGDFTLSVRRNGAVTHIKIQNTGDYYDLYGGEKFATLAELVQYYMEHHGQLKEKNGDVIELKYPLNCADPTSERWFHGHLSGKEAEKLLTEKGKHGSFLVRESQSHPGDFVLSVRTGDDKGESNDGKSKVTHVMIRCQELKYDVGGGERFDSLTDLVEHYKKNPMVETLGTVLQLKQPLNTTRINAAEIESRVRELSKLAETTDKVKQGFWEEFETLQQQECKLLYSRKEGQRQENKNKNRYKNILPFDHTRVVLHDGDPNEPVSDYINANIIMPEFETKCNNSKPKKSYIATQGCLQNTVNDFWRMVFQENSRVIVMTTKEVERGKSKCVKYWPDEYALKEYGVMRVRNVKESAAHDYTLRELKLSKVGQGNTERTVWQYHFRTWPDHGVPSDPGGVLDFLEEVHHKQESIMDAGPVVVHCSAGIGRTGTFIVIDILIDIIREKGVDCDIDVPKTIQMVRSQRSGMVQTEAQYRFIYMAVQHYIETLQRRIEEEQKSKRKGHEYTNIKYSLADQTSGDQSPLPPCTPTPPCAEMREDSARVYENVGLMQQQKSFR
Test: Determination of Allosteric Inhibition Activities of the Compounds of the Present Invention on SHP2
Description: he experimental process was briefly described as follows: Test compounds were first dissolved in DMSO to prepare storage solutions. […] Then, the compounds to be tested were added in a concentration range of 0.00004-10 uM and incubated at 25 C. for 60 minutes. Then DiFMUP (Thermo, D6567) was added in the reaction and incubated at 25 C. for 30 minutes. After incubation, readings were taken using a microplate reader (BMG) with excitation and emission wavelengths of 340 nm and 450 nm, respectively.

IC50 | Compound
7 nM | NC1(c2ccccc2)CCN(c2nc(C(=O)O)c3c(-c4cccc(Cl)c4Cl)n[nH]c3n2)CC1 [US20230348467, Compound 10]
3 nM | NC(=O)c1nc(N2CCC(N)(c3cccc(O)c3)CC2)nc2[nH]nc(-c3cccc(Cl)c3Cl)c12 [US20230348467, Compound 51]

Compound | IC50
NC(=O)c1nc(N2C3CCC2CC(N)C3)nc2[nH]nc(-c3cccc(Cl)c3Cl)c12 (stereo not drawn) [US20230348467, Compound 17] | 4 nM
